Reference: PMC3855964, “Cysteine-10 on 17β-Hydroxysteroid Dehydrogenase 1 Has Stabilizing Interactions in the Cofactor Binding Region and Renders Sensitivity to Sulfhydryl Modifying Chemicals” (International Journal of Cell Biology, 2013)
Where a chain is given by its changes, count along the chain named. Where two headings read alike, the source gives them in different places.

How the values were obtained:
[1] = biological target: T1, human 17β-HSD1 (Homo sapiens, UniProt P14061); experiment: 17β-HSD1 reductase activity (estrone to estradiol) in lysates of transfected HEK-293 cells; type: biochemical; details: for IC50 for 17β-HSD1 compared with those obtained for 11β-HSD2: simultaneous incubation with substrate and inhibitor, 11β-HSD2 values from ref 20
T1 construct: expressed in transfected cells; host or cells: HEK-293 (transient calcium phosphate transfection; cell lysates used)
T1 sequence (P14061 1-328): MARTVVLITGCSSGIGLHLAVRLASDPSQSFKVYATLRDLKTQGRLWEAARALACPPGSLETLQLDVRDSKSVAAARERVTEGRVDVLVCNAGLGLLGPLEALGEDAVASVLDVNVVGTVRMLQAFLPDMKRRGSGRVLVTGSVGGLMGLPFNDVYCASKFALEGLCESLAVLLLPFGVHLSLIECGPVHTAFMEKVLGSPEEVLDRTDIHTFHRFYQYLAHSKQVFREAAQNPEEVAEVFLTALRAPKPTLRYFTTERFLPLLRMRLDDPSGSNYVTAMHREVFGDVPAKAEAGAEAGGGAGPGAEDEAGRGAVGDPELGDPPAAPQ
Protocol: (§1) To determine 17β-HSD1 activity, HEK-293 cells were transfected by the calcium phosphate precipitation method. Cells were harvested 48 h after transfection, washed twice with phosphate-buffered saline (PBS), and centrifuged for 4 min at 150 ×g. Supernatants were removed and the cell pellets were quick-frozen in a dry ice-ethanol bath and stored at −80°C. The reductase activity of 17β-HSD1 was measured by incubation of cell lysates for 10 min at 37°C in the presence of 200 nM radiolabeled estrone and 400 μM NADPH in a reaction buffer containing 20% glycerol, 1 mM EDTA, and 50 mM potassium phosphate, pH 7.4. Inhibitors were diluted from stock solutions in dimethylsulfoxide (DMSO) and immediately used in the assays.
(§2) For determination of enzyme kinetics, estrone concentrations ranging from 10 to 800 nM were used. Data (mean ± SD) were obtained from three independent experiments and were calculated using the Data Analysis Toolbox (Elsevier MDL, Allschwil, Switzerland).

[2] = biological target: T2, Cys^10Ser mutant 17β-HSD1 (Homo sapiens, UniProt P14061, C11S); experiment: Cys^10Ser mutant 17β-HSD1 reductase activity (estrone to estradiol) in lysates of transfected HEK-293 cells; type: biochemical
T2 construct: expressed in transfected cells; host or cells: HEK-293 (transient calcium phosphate transfection; cell lysates used)
T2 sequence (P14061 1-328 C11S): T1 sequence (P14061 1-328) with C11S
Protocol: In order to facilitate detection, an octahistidine tag was added to the C-terminus of human 17β-HSD1 by PCR amplification using oligonucleotide primers containing the tag-coding sequence (forward primer 5′-[…]-3′, reverse primer 5′-[…]-3′). […] The substitution of Cys^10 to serine was introduced into the C-terminal histidine-tagged 17β-HSD1 cDNA in Bluescript vector by site-directed mutagenesis using the forward primer 5′-[…]-3′ and the reverse primer 5′-[…]-3′ according to the Quick Change mutagenesis kit (Stratagene, Amsterdam, The Netherlands), followed by subsequent recloning into pcDNA3.1 expression plasmid.
as §1, §2

[3] = simultaneous incubation of lysates with 200 nM estrone and inhibitor, 400 μM NADPH, 10 min, 37°C, read-out: IC50

Compound: maneb
- IC50 [1, 3]: 25 ± 3 µM
- IC50 for 17β-HSD1 compared with those obtained for 11β-HSD2 [1]: about two orders of magnitude higher

Compound: CCN(CC)C(=S)SSC(=S)N(CC)CC [disulfiram]
- IC50 [1, 3]: 8 ± 1 µM
- IC50 for 17β-HSD1 compared with those obtained for 11β-HSD2 [1]: about two orders of magnitude higher

Compound: S=C(S)NCCNC(=S)S [zineb]
- IC50 [1]: 24 ± 3 µM
- IC50 for 17β-HSD1 compared with those obtained for 11β-HSD2 [1]: about two orders of magnitude higher

Compound: CN(C)C(=S)SSC(=S)N(C)C [thiram]
- IC50 [1, 3]: 21 ± 4 µM
- IC50 for 17β-HSD1 compared with those obtained for 11β-HSD2 [1]: about two orders of magnitude higher

Compound: C[C@]12CC[C@@H]3c4ccc(O)cc4CC[C@H]3[C@@H]1CCC2=O [estrone]
- K m ([2]; Cys^10Ser mutant, estrone 10 to 800 nM, 400 μM NADPH): 0.065 ± 0.003 µM
- V max ([2]; Cys^10Ser mutant, estrone 10 to 800 nM, 400 μM NADPH, normalized to protein expression): 124 ± 3 nmol/h/mg
- K m ([1]; wild-type, estrone 10 to 800 nM, 400 μM NADPH): 0.043 ± 0.006 µM
- V max ([1]; wild-type, estrone 10 to 800 nM, 400 μM NADPH, normalized to protein expression): 110 ± 5 nmol/h/mg

Compound: CCN1C(=O)C=CC1=O [NEM, N-ethylmaleimide]
- inhibition of wild-type enzyme relative to mutant Cys^10Ser ([2]; cell lysates, data not shown): approximately two times stronger
- 17β-HSD1 activity after preincubation with inhibitor ([1]; preincubation of lysates with 20 μM NEM for 1 h prior to the addition of estrone, data not shown): completely abolished
- effect of preincubation with NADPH on inhibition ([1]; preincubation with NADPH for 15 min, NEM 60 μM, estrone 200 nM, NADPH 400 μM, concentration dependent): protected from inhibition
- IC50 [1, 3]: 22 ± 6 µM
